Test results as given in US11198869B2, “Angelman syndrome antisense treatment” (The Texas A&M University System, priority 2017, dated 2021).

Legend:
[1] = system: UBE3A-AS; test: UBE3A-AS steady state RNA (TaqMan qRT-PCR) in GABAergic iPSC-derived neurons; format: cell-based, human; details: ASOs 10 μM
Protocol: (§1) Human-specific ASOs were then designed to target this region, which included four ASOs targeting non-polymorphic regions in human and regions conserved (100%) with macaque (Rhesus and Cynomolgus) (Table 7 and FIG. 3A). Human induced pluripotent stem cell (iPSC) neural precursor cells were differentiated into GABAergic neurons for 14 DIV and then treated with a control ASO [ASO-C (10 μM, n=3)], Topotecan [Topo (1 μM, n=2)], and six ASOs targeting UBE3A-AS [ASO-1, ASO-2, ASO-3, ASO-4, ASO-5, and ASO-6 (10 μM, n=3)]. Additionally, an ASO targeting an intronic region downstream of SNORD109B was included (ASO-7). Six days post-treatment (20 DIV), RNA was isolated from the neurons and the steady state RNA levels of UBE3A-AS and UBE3A were estimated relative to the control treatment (FIG. 3B).
The potency of ASO-4 was further examined given its effect on UBE3A-AS RNA levels. GABAergic iPSC-derived neurons were treated at 14 DIV with a 10-point ½ log dose response curve of ASO-4 and Topotecan, as a positive control and for comparisons between treatment [1 nM, 3 nM, 10 nM, 30 nM, 100 nM, 300 nM, 1 μM, 3 μM, 10 μM, and 30 μM (ASO-4, n=6; Topotecan, n=2)]. At 20 DIV, the steady state RNA levels of UBE3A-AS were measured and dose response curves fitted to estimate the IC50 and Emax (i.e., maximum UBE3A-AS inhibition) (Table 9 and FIG. 4A). […]
Additional ASOs targeting the 5′-end of UBE3A-AS were then designed to optimize the target sequences of ASO-4 (ASO-4.1, ASO-4.2, ASO-4.3, and ASO-4.4) as well as two other target regions, ASO-3 (ASO-3.1 and ASO-3.2) and ASO-6 (ASO-6.1) (Table 11). Additionally, ASO-4 was manufactured at two different vendors for comparative purposes (ASO-4.S, Sigma; ASO-4.I, Integrated DNA Technologies). Human iPSC-derived neurons (GABAergic) were treated at 14 DIV with a […] ½ log dose curve of ASO-3.1, ASO-3.2, ASO-4.S, ASO-4.I, ASO-4.1, ASO-4.2, ASO-4.3, ASO-4.4, and ASO-6.1 [30 nM, 100 nM, 300 nM, 1 μM (n=6)]. At 20 DIV, the IC50 and Emax of each ASO was estimated as described above (FIG. 5A-B and Table 12). […] No significant difference was observed between ASO-4.S and ASO-4.I.
(§2) The potency of ASO-4 and ASO-6.1 was further examined in iPSC-derived neurons at a later time point in differentiation. GABAergic iPSC-derived neurons were treated at 29 DIV with a 10-point ½ log dose response curve of ASO-4 and ASO-6.1 [1 nM, 3 nM, 10 nM, 30 nM, 100 nM, 300 nM, 1 μM, 3 μM, 10 μM, and 30 μM (n=3)]. At 35 DIV, the IC50 and Emax of each ASO was estimated as described above (FIG. 5C-D and Table 14). The dose response curves of ASO-4 and ASO-6.1 were not similar (Parallelism test: F(3,172)=22.7, p<0.0001).
(§3) GABAergic and glutamatergic induced pluripotent stem cell (iPSC) derived neural precursor cells (NRC-100-010-001 and GNC-301-030-001, Cellular Dynamics International, Madison Wis.) were differentiated into neurons according to the manufactures protocol. Briefly, neural precursor cells were thawed and resuspended in chemically defined medium and added to sterile-culture plates coated with poly-D-lysine and laminin. The medium was replaced 24 hr after plating and then one-half of the medium was replaced every 3-5 days afterwards.
(§4) For cultured iPSC-derived neurons, RNA isolation and cDNA synthesis were performed using the Cell-to-CT kit (Thermo Fisher Scientific) in a lysate volume of 55 μl.
The steady state RNA levels of target transcripts were measured using TaqMan quantitative reverse-transcription PCR (qRT-PCR) assays. Total reaction volume was 10 uL, including 2 μl of cDNA, 1× Gene Expression Master mix (4369016, Thermo Fisher Scientific, Waltham, Mass.), and 1× TaqMan primer assay (Thermo Fisher Scientific). Cycling conditions were 2 minutes at 50° C., 10 minutes at 95° C., and 40 cycles of 15 seconds at 95° C. and 1 minute at 60° C., with readings taken at the 60° C. step of every cycle. […]

[2] = system: UBE3A; test: UBE3A steady state RNA (qRT-PCR) in GABAergic iPSC-derived neurons; format: cell-based, human; details: ASOs 10 μM
Protocol: as §1
The effects of ASO-4 and Topotecan were then examined on the SNORD116, IPW, SNORD115, and SNORD109A RNAs, which are located upstream of the ASO-4 target region (see FIG. 1A).
The potency of ASO-4 was further examined in iPSC-derived neurons at a later time point in differentiation. GABAergic iPSC-derived neurons were treated at 59 DIV with a control ASO [ASO-C, 10 μM (n=3)] and ASO-4 [1 uM, 5 μM, and 10 μM (n=3)], and the steady state RNA levels of UBE3A-AS and UBE3A were measured as described above (FIG. 4G). Unlike neurons treated with ASO-4 at an earlier time point, the RNA levels of UBE3A and UBE3A-AS were highly inversely correlated (FIGS. 4H and 4I). For example, the effect of ASO-4 (10 μM) on UBE3A-AS RNA levels was similar between neurons treated at 14 and 59 DIV [20 DIV: UBE3A-AS: ↓87% (95% confidence intervals (CI): 80 to 95%); 65 DIV: ↓81% (95% CI: 74 to 88%)], whereas the effect of ASO-4 on UBE3A RNA levels was substantially larger in neurons treated at 59 DIV [20 DIV: ↑30% (95% CI: 16 to 44%); 65 DIV: ↑86% (95% CI: 59% to 113%)].
as §2, §3, §4
The steady state RNA levels of target transcripts were measured using TaqMan quantitative reverse-transcription PCR (qRT-PCR) assays. Total reaction volume was 10 uL, including 2 μl of cDNA, 1× Gene Expression Master mix (4369016, Thermo Fisher Scientific, Waltham, Mass.), and 1× TaqMan primer assay (Thermo Fisher Scientific). Cycling conditions were 2 minutes at 50° C., 10 minutes at 95° C., and 40 cycles of 15 seconds at 95° C. and 1 minute at 60° C., with readings taken at the 60° C. step of every cycle. Reactions were run on a BIO-RAD T1000 CFX96 thermocycler (Bio-Rad Laboratories, Hercules Calif.), with internal control (PPIA, Hs99999904_m1, Thermo Fisher Scientific) and target [UBE3A-AS, Hs01372957_m1; SNORD116-11, Hs04275268_gH; SNORD115, Hs04275288_gH; IPW, Hs03455409_s1; SNORD109A/B, AP47WVR (Thermo Fisher Scientific); UBE3A: forward […] (SEQ ID NO:500); reverse: […]

[3] = system: paternal Ube3aYFP protein; test: Paternal Ube3aYFP protein levels by immunofluorescent imaging in mouse primary hippocampal neurons; format: cell-based; details: treated 7 DIV, imaged 10 DIV; ASOs 1, 5, 15 μM, Topotecan 300 nM; compared to ASO-C and Veh
Protocol: Based on these findings, mouse-specific ASOs were designed to target a specific region in the Ube3a-AS transcript (Table 6 and FIG. 2A). To test whether ASOs targeting this region reactivate expression of the paternal Ube3a allele, primary hippocampal neuronal cultures were generated from the Ube3aYFP reporter mouse model (Ube3a+/YFP; FIG. 2B) and treated at 7 days in vitro (DIV) with a control ASO [ASO-C (10 uM, n=3)], three ASOs targeting Ube3a-AS [ASO-1.1, ASO-1.2, ASO-3.1 (1 μM, 5 μM, and 15 μM, n=3)], and ASO-B (1 μM, 5 μM, and 15 μM, n=3)]. As a positive control, neurons were also treated with Topotecan [Topo (300 nM, n=3)] and a negative vehicle control [Veh (1%, n=3); FIG. 2 C]. Three days post-treatment (10 DIV), immunofluorescent imaging was used to quantify paternal Ube3aYFP protein levels in individual cells.
Primary cultures of hippocampal neurons were generated from P0-P1 pups (Ube3a^m+/p+ and Ube3a^m+/pYFP) by crossing Ube3a^m+/pYFP males with wild-type C57BL/6J females. Genotypes were determined using methods described previously. Briefly, hippocampal neurons were cultured in Neurobasal A medium (Invitrogen, San Diego, Calif.) supplemented with B27 (Invitrogen) and penicillin/streptomycin (Invitrogen) on 96-well optical bottom plates coated with poly-D-Lysine (152028, Thermo Fisher Scientific) and laminin (23017-01, Thermo Fisher Scientific). […]

[4] = Topo 1 μM, 14 DIV to 20 DIV, ASO-1 minus labelled treatment
[5] = Topo 1 μM, 14 DIV to 20 DIV, ASO-R minus labelled treatment
[6] = Topo 1 μM, 14 DIV to 20 DIV, Topo minus labelled treatment
[7] = Topo 1 μM, treated 14 DIV, RNA 20 DIV, normalized to ASO-C, ASO-C minus labelled treatment
[8] = 14 DIV to 20 DIV, ASO-5 minus labelled treatment
[9] = Topo 1 μM, 14 DIV to 20 DIV, labelled treatment minus ASO-3
[10] = Topo 1 μM, 14 DIV to 20 DIV, labelled treatment minus ASO-R
[11] = Topo 1 μM, treated 14 DIV, RNA 20 DIV, normalized to ASO-C, labelled treatment minus ASO-C
[12] = Topo 1 μM, 14 DIV to 20 DIV, labelled treatment minus ASO-6

Row | Substance | Difference, UBE3A-AS RNA level [1, 4] | Difference, UBE3A-AS RNA level [1, 5] | Difference, UBE3A-AS RNA level [1, 6] | Difference, UBE3A-AS RNA level [1, 7] | Difference, UBE3A-AS RNA level ([1]; 14 DIV to 20 DIV, ASO-3 minus labelled treatment) | Difference, UBE3A-AS RNA level [1, 8] | Difference, UBE3A RNA level [2, 9] | Difference, UBE3A RNA level [2, 10] | Difference, UBE3A RNA level [2, 11] | paternal Ube3aYFP protein levels [3] | Difference, UBE3A RNA level [2, 12] | Difference, UBE3A RNA level ([2]; Topo 1 μM, 14 DIV to 20 DIV, labelled treatment minus ASO-5) | Difference, UBE3A RNA level ([2]; 14 DIV to 20 DIV, labelled treatment minus Topo (1 μM))
1 | C^O*U^O*G^O*G^O*U^O*g*t*c*a*a*c*a*a*g*c*C^O*A^O*A^O*A^O*G^O [ASO-6] | 0.32 | 0.81 | 0.17 | 0.83 | 0.04 | 0.12 | 0.03 | 0.16 | 0.16 | – | – | – | –
2 | C^O*C^O*A^O*C^O*A^O*t*t*t*c*c*t*c*t*c*a*U^O*G^O*G^O*A^O*A^O [ASO-1.1] | – | – | – | – | – | – | – | – | – | level similar to that achieved by the optimal concentration of Topotecan | – | – | –
3 | G^O*U^O*U^O*U^O*U^O*c*t*t*c*c*t*c*c*a*c*A^O*G^O*U^O*C^O*U^O [ASO-5] | 0.20 | 0.69 | 0.05 | 0.71 | – | – | 0.03 | 0.16 | 0.16 | – | 0.00 | – | –
4 | U^O*G^O*U^O*C^O*A^O*g*t*t*t*c*t*c*c*c*t*G^O*A^O*A^O*C^O*A^O [ASO-3] | 0.28 | 0.77 | 0.13 | 0.79 | – | 0.08 | – | 0.13 | 0.13 | – | – | – | –
5 | U^O*A^O*G^O*A^O*G^O*g*t*g*a*a*g*g*c*c*a*G^O*G^O*C^O*A^O*C^O [ASO-1] | – | 0.49 | – | 0.51 | – | – | 0.05 | 0.18 | 0.18 | – | 0.02 | 0.02 | 0.00
